In patent US11932634B2 (Gilead Sciences, Inc., priority 2021, dated 2024):

Assays:
human DGKα = molecular target: T1, human DGKα (Homo sapiens, UniProt P23743); assay: DGKα Biochemical Activity Assay (ADP-Glo);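 also: recombinant enzyme converting diacylglycerol in lipid micelles with ATP, ADP formed detected by luminescence, IC50 from a four-parameter nonlinear fit, geometric mean across experiments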
T1 construct: purchased Carna Biosciences'; inferred from the same paragraph's 'obtained from Carna Biosciences')
Source text: Alternatively, the enzymatic activity of human DGKα was monitored in a biochemical assay in the presence or absence of compounds and using micelles containing 18:1 Diacylglycerol (DAG), 16:0-18:1 PS (POPS) and Octylglucoside as substrate. DGKα activity led to conversion of DAG and ATP to Phosphatidic Acid (PA) and ADP. Levels of ADP were monitored by bioluminescence using the ADP-Glo Kinase Assay (Promega) and were indicative of DGKα activity.
Ten nanoliters of test compound dissolved in DMSO at various concentrations were dispensed into a 384-well low volume nonbinding service white plates (Corning #3824) using a Labcyte Echo instrument. Recombinant DGKα Biosciences) in assay buffer (5 μL in 50 mM MOPS [3-(N-morpholino) propanesulfonic acid], pH 7.2; 0.0025% Triton X-100; 1 mM dithiothreitol; 5 mM MgCl2, 200 μM ATP) was added to the compound-containing plate and was incubated for 15 minutes at 25° C. A substrate solution (5 μL in 1.7 mM 1,2-dioleoyl-sn-glycerol [18:1 DAG], 13.5 mM 1-palmitoyl-2-oleoyl-sn-glycero-3-phospho-L-serine [16:0-18:1 PS](POPS), 2 μM CaCl2), 100 mM Octylglucoside (OG), 1 mM DTT) (obtained from Carna Biosciences) diluted in DGK ALPHA assay buffer was then added to start the reaction. Final concentrations were 1 nM DGKα, 100 μM ATP, 1 μM calcium chloride, 0.85 mM 1,2-dioleoyl-sn-glycerol (18:1 DAG), 6.75 mM 1-palmitoyl-2-oleoyl-sn-glycero-3-phospho-L-serine (16:0-18:1 PS) (POPS), 1 μM CaCl2), 50 mM Octylglucoside (OG) and 5 mM MgCl2. The reaction mixture was incubated at 25° C. for 1 hour. ADP-Glo Reagent (10 μL, 10 mM Mg added) provided by the kit was added to each well and incubated at 25° C. for 40 minutes. Then, 20 μL of Kinase Detection Reagent was added and incubated at 25° C. for 40 minutes. Luciferase activity of each well was measured via luminescence on an Envision plate reader (PerkinElmer).
Least squares curve fittings were performed using a four-parameter variable slope nonlinear regression model. […] IC50 values from multiple experiments were averaged by geometric mean and the standard deviation was calculated.

[1] = system: Jurkat NFκB-luciferase cells; assay: Jurkat NFκB-Luciferase Assay; type: cell-based; conditions: Homo sapiens; Jurkat NFκB-luciferase cells activated with anti-CD3 antibody (OKT3), 2.5 hrs at 37° C., One-Glo Ex; geometric mean; read-out: DGK NFKb Luciferase EC50;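 also: bioluminescence read-out normalized to DMSO basal activation and to maximum enhancement at 1 µM compound, rising signal indicating stronger T-cell activation through DGKα inhibition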
Procedure: The activity of compounds was tested in a cell based NFκB reporter assay. Jurkat cells that are stably expressing a luciferase reporter construct under the transcriptional control of a NFκB reporter element were activated with an anti-CD3 antibody and luciferase levels were measured with a bioluminescence readout.
The day after, the excess antibody was washed out five times with 100 ul/well of assay medium (RPMI supplemented with 10% fetal bovine serum) using a Biotek EL406 instrument and leaving 20 µl of residual volume in each well. Jurkat NFκB-luciferase cells (Promega #) were harvested and diluted to 1 million cells/ml in assay medium. Sixty nanoliters of test compound dissolved in DMSO at various concentrations were dispensed into 384-well v-bottom polypropylene plates (Greiner) using a Labcyte Echo instrument. Thirty microliters of medium containing the Jurkat NFκB-luciferase cells were then dispensed using a Biotek MicroFlo instrument in each well of the compound-containing plate. The medium/cell/compound mixture was mixed with a Bravo instrument and 20 ul/well of the mixture was transferred to the anti-CD3-coated plate. The assay mixture was then incubated for 2.5 hrs at 37° C. followed by equilibration at 25° C. for 30 min. Forty microliters of One-Glo Ex (Promega) was then added to the assay mixture and luciferase activity was read on a Envision plate reader 7 minutes later.
Bioluminescence data were normalized based on maximum enhancement (1 micromolar of compound) and on basal activation (DMSO) controls. Least squares curve fittings were performed using a four-parameter variable slope nonlinear regression model. […] EC50 values from multiple experiments were averaged by geometric mean and the standard deviation was calculated.

T1 sequence (P23743 whole entry): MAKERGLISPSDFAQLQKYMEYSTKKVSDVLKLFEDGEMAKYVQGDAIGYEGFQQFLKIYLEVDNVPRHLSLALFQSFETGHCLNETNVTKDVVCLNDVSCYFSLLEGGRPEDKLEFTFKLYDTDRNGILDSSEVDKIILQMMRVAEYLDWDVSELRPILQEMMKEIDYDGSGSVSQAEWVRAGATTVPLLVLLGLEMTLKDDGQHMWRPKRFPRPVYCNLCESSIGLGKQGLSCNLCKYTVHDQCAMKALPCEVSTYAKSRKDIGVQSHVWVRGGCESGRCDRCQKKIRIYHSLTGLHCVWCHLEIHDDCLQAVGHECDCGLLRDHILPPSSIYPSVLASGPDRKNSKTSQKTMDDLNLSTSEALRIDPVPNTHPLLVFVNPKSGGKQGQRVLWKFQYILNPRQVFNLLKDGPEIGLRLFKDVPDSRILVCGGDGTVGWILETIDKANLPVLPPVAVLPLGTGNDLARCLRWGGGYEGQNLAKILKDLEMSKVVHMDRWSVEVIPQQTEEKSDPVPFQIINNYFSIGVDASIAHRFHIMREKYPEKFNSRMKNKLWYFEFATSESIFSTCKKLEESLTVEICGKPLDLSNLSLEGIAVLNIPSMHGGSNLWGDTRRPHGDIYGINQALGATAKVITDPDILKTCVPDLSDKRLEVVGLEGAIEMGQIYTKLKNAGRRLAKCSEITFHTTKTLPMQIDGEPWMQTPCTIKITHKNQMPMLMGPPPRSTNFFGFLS

| Compound | IC50 (human DGKα) | EC50 [1] |
| --- | --- | --- |
| O=c1nc(N(CC(F)(F)F)c2cc(F)cc(C#CC3(C(F)(F)F)CC3)c2)c2cc(F)ccc2[nH]1 [Example 27, 6-fluoro-4-[3-fluoro-N-(2,2,2-trifluoroethyl)-5-[2-[1-(trifluoromethyl)cyclopropyl]ethynyl]anilino]-1H-quinazolin-2-one] | 97.3 nM | 3.27 nM |
| [2H]C([2H])([2H])n1c(=O)nc(N2CCOCc3c(C#CC4CCCN4CC(F)F)cccc32)c2c(F)cccc21 (centres unmarked) [Example 168, 4-[6-[2-[1-(2,2-difluoroethyl)pyrrolidin-2-yl]ethynyl]-3,5-dihydro-2H-4,1-benzoxazepin-1-yl]-5-fluoro-1-(trideuteriomethyl)quinazolin-2-one] | 5.33 nM | 1.55 nM |
| CC(C)(C#Cc1nccc(N(CC(F)F)c2nc(=O)[nH]c3cccc(F)c23)c1F)C(F)F [Example 121, 4-[[2-(4,4-difluoro-3,3-dimethyl-but-1-ynyl)-3-fluoro-4-pyridyl]-(2,2-difluoroethyl)amino]-5-fluoro-1H-quinazolin-2-one] | 20.7 nM | 8.44 nM |
| Cn1c(=O)nc(N(CC(F)(F)F)c2cc(F)cc(C#CC3(C(F)(F)F)CC3)c2)c2c(F)cccc21 [Example 31, 5-fluoro-4-[3-fluoro-N-(2,2,2-trifluoroethyl)-5-[2-[1-(trifluoromethyl)cyclopropyl]ethynyl]anilino]-1-methyl-quinazolin-2-one] | 45.7 nM | 2.89 nM |
| [2H]C([2H])([2H])n1c(=O)nc(N(CC(F)F)c2ccnc(C#CC3(C)CC3)c2)c2c(F)c(F)ccc21 [Example 117, 4-[2,2-difluoroethyl-[2-[2-(1-methylcyclopropyl)ethynyl]-4-pyridyl]amino]-5,6-difluoro-1-(trideuteriomethyl)quinazolin-2-one] | 3.36 nM | 4.7 nM |
| Cn1c(=O)nc(N(CC(F)(F)F)c2cc(F)cc(C#CC3(C(F)(F)F)CC3)c2)c2ccc(Cl)cc21 [Example 32, 7-chloro-4-[3-fluoro-N-(2,2,2-trifluoroethyl)-5-[2-[1-(trifluoromethyl)cyclopropyl]ethynyl]anilino]-1-methyl-quinazolin-2-one] | 123 nM | 1.02 nM |
| [2H]C([2H])([2H])n1c(=O)nc(N2CCOCc3c(C#CC45CC(CN4CC(F)F)C5)cccc32)c2c(F)cccc21 [Example 173, 4-[6-[2-[2-(2,2-difluoroethyl)-2-azabicyclo[2.1.1]hexan-1-yl]ethynyl]-3,5-dihydro-2H-4,1-benzoxazepin-1-yl]-5-fluoro-1-(trideuteriomethyl)quinazolin-2-one] | 0.731 nM | 0.401 nM |
| [2H]C([2H])([2H])n1c(=O)nc(N2CCCc3c(C#CC4CCCN4C)cccc32)c2c(F)cccc21 (centres unmarked) [Example 161, 5-fluoro-4-[5-[2-(1-methylpyrrolidin-2-yl)ethynyl]-3,4-dihydro-2H-quinolin-1-yl]-1-(trideuteriomethyl)quinazolin-2-one] | 16.7 nM | 2.8 nM |
| [2H]C([2H])([2H])n1c(=O)nc(N2CCOCc3c(C#CC4CCCN4C(=O)C4CC4)cccc32)c2c(F)cccc21 (centres unmarked) [Example 169, 4-[6-[2-[1-(cyclopropanecarbonyl)pyrrolidin-2-yl]ethynyl]-3,5-dihydro-2H-4,1-benzoxazepin-1-yl]-5-fluoro-1-(trideuteriomethyl)quinazolin-2-one] | 9.06 nM | 12.8 nM |
| CC(C)(C#Cc1nccc2c1CCCN2c1nc(=O)[nH]c2ccc(F)c(F)c12)C(F)(F)F [Example 133, 5,6-difluoro-4-[5-(4,4,4-trifluoro-3,3-dimethyl-but-1-ynyl)-3,4-dihydro-2H-1,6-naphthyridin-1-yl]-1H-quinazolin-2-one] | 23.2 nM | 4.47 nM |
| CC1(C#Cc2cccc3c2COCCN3c2nc(=O)[nH]c3c(F)cc(F)cc23)CC1 [Example 105] | 6.96 nM | 0.85 nM |
| COC(C)(C)C#Cc1cccc2c1CCCN2c1nc(=O)[nH]c2cccc(F)c12 [Example 52, 5-fluoro-4-[5-(3-methoxy-3-methyl-but-1-ynyl)-3,4-dihydro-2H-quinolin-1-yl]-1H-quinazolin-2-one] | 12.9 nM | 0.197 nM |
| Cn1c(=O)nc(N(CC(F)(F)F)c2cc(F)cc(C#CC3(C(F)(F)F)CC3)c2)c2cc(F)ccc21 [Example 30, 6-fluoro-4-[3-fluoro-N-(2,2,2-trifluoroethyl)-5-[2-[1-(trifluoromethyl)cyclopropyl]ethynyl]anilino]-1-methyl-quinazolin-2-one] | 27.1 nM | 1.94 nM |
| [2H]C([2H])([2H])n1c(=O)nc(N2CCOCc3c(C#CC(C)(C)C#N)cccc32)c2c(F)cccc21 [Example 95, 4-[1-[5-fluoro-2-oxo-1-(trideuteriomethyl)quinazolin-4-yl]-3,5-dihydro-2H-4,1-benzoxazepin-6-yl]-2,2-dimethyl-but-3-ynenitrile] | 2.1 nM | 2.29 nM |
| O=c1nc(N(CC(F)F)c2ccnc(C#CC3(C(F)(F)F)CC3)c2F)c2c(F)cccc2[nH]1 [Example 118, 4-[2,2-difluoroethyl-[3-fluoro-2-[2-[1-(trifluoromethyl)cyclopropyl]ethynyl]-4-pyridyl]amino]-5-fluoro-1H-quinazolin-2-one] | 25.7 nM | 3.73 nM |
| O=c1nc(N2CCCc3c(C#CC4(C(F)(F)F)CC4)cncc32)c2c(F)cccc2[nH]1 [Example 71, 5-fluoro-4-(5-((1-(trifluoromethyl)cyclopropyl)ethynyl)-3,4-dihydro-1,7-naphthyridin-1(2H)-yl)quinazolin-2(1H)-one] | 18.4 nM | 1.43 nM |
| CC1(C#Cc2cccc3c2COCCN3c2nc(=O)[nH]c3cccc(F)c23)COC1 [Example 93, 5-fluoro-4-(6-((3-methyloxetan-3-yl)ethynyl)-2,3-dihydrobenzo[e][1,4]oxazepin-1(5H)-yl)quinazolin-2(1H)-one] | 6.6 nM | 7.25 nM |
| [2H]C([2H])([2H])n1c(=O)nc(N2CCOCc3c(C#CC(C)(C)O)cccc32)c2c(F)c(F)ccc21 [Example 97, 5,6-difluoro-4-[6-(3-hydroxy-3-methyl-but-1-ynyl)-3,5-dihydro-2H-4,1-benzoxazepin-1-yl]-1-(trideuteriomethyl)quinazolin-2-one] | 4.37 nM | 15.8 nM |
| [2H]C([2H])([2H])n1c(=O)nc(N(CC(F)F)c2ccnc(C#CC(C)(C)C(F)F)c2F)c2c(F)cccc21 [Example 123, 4-[[2-(4,4-difluoro-3,3-dimethyl-but-1-ynyl)-3-fluoro-4-pyridyl]-(2,2-difluoroethyl)amino]-5-fluoro-1-(trideuteriomethyl)quinazolin-2-one] | 6.41 nM | 2.39 nM |
| [2H]C([2H])([2H])n1c(=O)nc(N(CC(F)F)c2cc(F)cc(-c3cnc(C4CC4)cn3)c2)c2c(F)cccc21 [Example 44, 4-[3-(5-cyclopropylpyrazin-2-yl)-N-(2,2-difluoroethyl)-5-fluoro-anilino]-5-fluoro-1-(trideuteriomethyl)quinazolin-2-one] | 11.2 nM | 1.43 nM |
| CN(c1cccc(C#CC(C)(C)O)c1)c1nc(=O)n(C)c2cc(Cl)ccc12 [Example 4, 7-chloro-4-[3-(3-hydroxy-3-methyl-but-1-ynyl)-N-methyl-anilino]-1-methyl-quinazolin-2-one] | 17 nM | 4.56 nM |
| [2H]C([2H])([2H])n1c(=O)nc(N(CC(F)F)c2cc(F)cc(C#CC3(C(F)(F)F)CC3)c2)c2c(F)c(F)ccc21 [Example 41, 4-[N-(2,2-difluoroethyl)-3-fluoro-5-[2-[1-(trifluoromethyl)cyclopropyl]ethynyl]anilino]-5,6-difluoro-1-(trideuteriomethyl)quinazolin-2-one] | 9.63 nM | 1 nM |
| CC(C)(O)C#Cc1cc(F)cc(N(CC(F)F)c2nc(=O)[nH]c3ccc(F)c(F)c23)c1 [Example 65, 4-[N-(2,2-difluoroethyl)-3-fluoro-5-(3-hydroxy-3-methyl-but-1-ynyl)anilino]-5,6-difluoro-1H-quinazolin-2-one] | 13.4 nM | 9.92 nM |
| CC(C)(C#Cc1cncc2c1CCCN2c1nc(=O)[nH]c2cccc(F)c12)C(F)(F)F [Example 72, 5-fluoro-4-(5-(4,4,4-trifluoro-3,3-dimethylbut-1-yn-1-yl)-3,4-dihydro-1,7-naphthyridin-1(2H)-yl)quinazolin-2(1H)-one] | 126 nM | 5.71 nM |
| Cn1c(=O)nc(N(CC(F)F)c2cccc(C#CC3(C(F)(F)F)CC3)n2)c2cc(F)ccc21 [Example 47, 4-((2,2-difluoroethyl)(6-((1-(trifluoromethyl)cyclopropyl)ethynyl)pyridin-2-yl)amino)-6-fluoro-1-methylquinazolin-2(1H)-one] | 15 nM | 1.37 nM |
| O=c1nc(N(CC(F)F)c2ccnc(C#CC3(C(F)F)CC3)c2F)c2c(F)cccc2[nH]1 [Example 126, 4-[2,2-difluoroethyl-[2-[2-[1-(difluoromethyl)cyclopropyl]ethynyl]-3-fluoro-4-pyridyl]amino]-5-fluoro-1H-quinazolin-2-one] | 18 nM | 3.37 nM |
| O=c1nc(N(CC(F)F)c2cccc(C#CC3(C(F)(F)F)CC3)c2F)c2c(F)cccc2[nH]1 [Example 58, 4-[N-(2,2-difluoroethyl)-2-fluoro-3-[2-[1-(trifluoromethyl)cyclopropyl]ethynyl]anilino]-5-fluoro-1H-quinazolin-2-one] | 72.2 nM | 0.285 nM |
| [2H]C([2H])([2H])n1c(=O)nc(N2CCCCc3c(C#CC(C)(C)O)cccc32)c2c(F)cccc21 [Example 85, 5-fluoro-4-[6-(3-hydroxy-3-methyl-but-1-ynyl)-2,3,4,5-tetrahydro-1-benzazepin-1-yl]-1-(trideuteriomethyl)quinazolin-2-one] | 3.31 nM | 4.08 nM |
